Molecular target: T1, Human DGAT1 (Homo sapiens, UniProt O75907)
T1 construct: made in house; host or cells: Pichia pastoris (printed 'Pichia pastris'), vector pPICZA; the membrane fraction served as enzyme source
T1 sequence (O75907 1-488): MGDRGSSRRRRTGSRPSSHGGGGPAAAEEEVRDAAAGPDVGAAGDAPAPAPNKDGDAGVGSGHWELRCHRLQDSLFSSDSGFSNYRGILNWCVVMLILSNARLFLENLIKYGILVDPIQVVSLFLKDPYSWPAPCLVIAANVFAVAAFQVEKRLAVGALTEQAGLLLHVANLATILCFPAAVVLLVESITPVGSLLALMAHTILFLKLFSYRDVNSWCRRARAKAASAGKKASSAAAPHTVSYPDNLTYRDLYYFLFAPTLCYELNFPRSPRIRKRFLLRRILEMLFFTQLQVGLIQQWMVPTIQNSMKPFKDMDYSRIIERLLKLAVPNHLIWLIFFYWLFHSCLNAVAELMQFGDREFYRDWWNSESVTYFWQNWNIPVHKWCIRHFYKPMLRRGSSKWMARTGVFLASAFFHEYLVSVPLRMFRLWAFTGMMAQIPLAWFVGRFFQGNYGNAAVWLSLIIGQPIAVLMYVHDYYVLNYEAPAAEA
Test: DGAT1 Inhibitory Activity Test ([14C]-oleoyl-CoA, DGAT1-expressed yeast membrane fraction)
Assay type: biochemical
Settings: 30 minutes
Description: Human DGAT1 genes were amplified by PCR using primers described below from human cDNA library (Clontech).
The amplified human DGAT1 genes were introduced into a yeast expression vector pPICZA (Invitrogen). The resultant expression plasmid was introduced into a yeast (Pichia pastris) by electroporation to produce a recombinant yeast. The recombination yeast was cultured in the presence of 0,5% methanol for 72 hours, and the cells were crushed using glass beads in 10 mM Tris pH 7.5, 250 mM sucrose and 1 mM EDTA, followed by adjusting the membrane fraction by centrifugation to use the adjusted membrane fraction as an enzyme source.
To the reaction liquid having the following composition: 100 mM Tris pH 7.5, 100 mM MgCl2, 100 mM sucrose, 40 μM dioelin, 15 μm [^14C]-oleoyl-CoA, 0.25 μg of test substance, DGAT1-expressed yeast membrane fraction, was added, and the mixture having a volume of 100 μl was incubated at room temperature for 30 minutes. To the reaction liquid, 100 μl of 2-propanol/heptan/H2O (80:20:2) was added, the mixture was stirred well, followed by adding 200 μl of heptane and further stirring the mixture. After centrifugation, the heptane layer was collected, ethanol/0.1N NaOH/H2O (50:5:45) was added, the mixture was thus stirred, followed by recentrifuging the mixture and collecting the heptane layer. After exsiccation of the obtained heptane layer, 100 μl of Microscint 0 (PerkinElmer) was added, and the radioactivity was measured with a liquid scintillation counter. The inhibitory activity was calculated from the following formula:
Inhibition rate=100−(radioactivity in case of addition of test compound−background)/(radioactivity in case of addition of no test compound−background)×100
wherein the background means the radioactivity in case of addition of no membrane fraction.

Row | IC50 (Table 5, room temperature) | IC50 (Table 6, room temperature) | SMILES
1 | 137 nM |  | O=C1C(NC(=O)C2(NC(=O)C3(C(F)(F)F)CC3)CC2)CCc2cc(OC(F)(F)F)ccc2N1Cc1cc(C(F)(F)F)cc(C(F)(F)F)c1 (single isomer, unassigned) [Example 41 Enantiomer A, N-[1-({[1-[3,5-bis(trifluoromethyl)benzyl]-2-oxo-7-(trifluoromethoxy)-2,3,4,5-tetrahydro-1H-1-benzazepin-3-yl]amino}carbonyl)cyclopropyl]-1-(trifluoromethyl)cyclopropane carboxyamide]
2 | 858 nM |  | O=C1C(NC(=O)C2(NC(=O)C3(C(F)(F)F)CC3)CC2)CCc2cc(OC(F)(F)F)ccc2N1Cc1cc(C(F)(F)F)cc(C(F)(F)F)c1 (single isomer, unassigned) [Example 41 Enantiomer B, N-[1-({[1-[3,5-bis(trifluoromethyl)benzyl]-2-oxo-7-(trifluoromethoxy)-2,3,4,5-tetrahydro-1H-1-benzazepin-3-yl]amino}carbonyl)cyclopropyl]-1-(trifluoromethyl)cyclopropane carboxyamide]
3 | 189 nM |  | CC(C)(C)OC(=O)NC1(C(=O)NC2CCc3ccccc3N(Cc3ccc(OC(F)(F)F)cc3)C2=O)CCC1 (single isomer, unassigned) [Example 46 Enantiomer A, tert-butyl{1-[({2-oxo-1-[4-(trifluoromethoxy)benzyl]-2,3,4,5-tetrahydro-1H-1-benzazepin-3-yl}amino)carbonyl]cyclobutyl}carbamate]
4 | 14 nM |  | CC(C)(C)OC(=O)NC1(C(=O)NC2CCc3ccccc3N(Cc3ccc(OC(F)(F)F)cc3)C2=O)CCC1 (single isomer, unassigned) [Example 46 Enantiomer B, tert-butyl{1-[({2-oxo-1-[4-(trifluoromethoxy)benzyl]-2,3,4,5-tetrahydro-1H-1-benzazepin-3-yl}amino)carbonyl]cyclobutyl}carbamate]
5 | 153 nM |  | CC(C)(C)OC(=O)NC1(C(=O)NC2CCc3ccccc3N(Cc3ccc(OC(F)(F)F)cc3)C2=O)CCCC1 (single isomer, unassigned) [Example 47 Enantiomer A]
6 | 21 nM |  | CC(C)(C)OC(=O)NC1(C(=O)NC2CCc3ccccc3N(Cc3ccc(OC(F)(F)F)cc3)C2=O)CCCC1 (single isomer, unassigned) [Example 47 Enantiomer B]
7 | 24 nM |  | CC(C)(C)OC(=O)NC1(C(=O)N[C@H]2CC(=O)c3ccccc3N(Cc3ccc(-c4ccccc4)cc3)C2=O)CC1 [Example 21]
8 |  | 65 nM | O=C(NC1(C(=O)N[C@@H]2CC(=O)c3ccccc3N(Cc3cc(C(F)(F)F)cc(C(F)(F)F)c3)C2=O)CC1)c1nccs1 [Example 50, N-{1-[({(3R)-1-[3,5-bis(trifluoromethyl)benzyl]-2,5-dioxo-2,3,4,5-tetrahydro-1H-1-benzazepin-3-yl}amino)carbonyl}cyclopropyl}-1,3-thiazole-2-carboxamide]
9 |  | 41 nM | CC(C)(C)OC(=O)NC1(C(=O)N[C@@H]2CC(=O)c3ccccc3N(Cc3cc(C(F)(F)F)cc(C(F)(F)F)c3)C2=O)CCC1 [Example 51, tert-butyl{1-[({(3R)-1-[3,5-bis(trifluoromethyl)benzyl]-2,5-dioxo-2,3,4,5-tetrahydro-1H-1-benzazepin-3-yl}amino)carbonyl]cyclobutyl}carbamate]
10 |  | 253 nM | O=C(NC1(C(=O)N[C@@H]2CC(=O)c3ccccc3N(Cc3cc(C(F)(F)F)cc(C(F)(F)F)c3)C2=O)CCC1)c1nccs1 [Example 52, N-{1-[({(3R)-1-[3,5-bis(trifluoromethyl)benzyl]-2,5-dioxo-2,3,4,5-tetrahydro-1H-1-benzazepin-3-yl}amino)carbonyl]cyclobutyl}-1,3-thiazole-2-carboxamide]
11 |  | 77 nM | O=C(NC1(C(=O)N[C@@H]2CC(=O)c3ccccc3N(Cc3cc(C(F)(F)F)cc(C(F)(F)F)c3)C2=O)CCC1)c1ccc(F)cc1 [Example 53, N-{1-[({(3R)-1-[3,5-bis(trifluoromethyl)benzyl]-2,5-dioxo-2,3,4,5-tetrahydro-1H-1-benzazepin-3-yl}amino)carbonyl]cyclobutyl}-4-fluorobenzamide]

Row | SMILES | IC50 (Table 5, room temperature) | IC50 (Table 6, room temperature)
12 | O=C(NC1(C(=O)N[C@@H]2CC(=O)c3ccccc3N(Cc3cc(C(F)(F)F)cc(C(F)(F)F)c3)C2=O)CC1)c1ccc(F)c(F)n1 [Example 8] | 85 nM | 

From patent US20110212891A1 (MSD K.K., priority 2008, published 2011)
